US20250195530A1, “POLQ INHIBITORS” (ASTRAZENECA AB, priority 2022, published 2025)
Where two headings read alike, the source gives them in different places.

Legend:
DLD-1 BRCA2−/− cells = experiment: Homologous recombination synthetic lethal inhibition of proliferation, DLD-1 BRCA2-/- (Cell Titre Glo 3D); type: cell-based; conditions: for IC50: Homo sapiens
In short: (§1)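 Luminescent Cell Titre Glo 3D readout, taken on day 12 for homologous-recombination-deficient DLD-1 BRCA2−/− and day 7 for the wild-type control, after compound refresh on day 6. Compounds spanned 10 μM to 0.51 nM in three-fold steps; IC50 defined as 50% reduction of average maximum signal.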

DLD-1 cells = experiment: Inhibition of proliferation, DLD-1 BRCA2 wt control (Cell Titre Glo 3D); type: cell-based; conditions: Homo sapiens
In short: as §1

[1] = DLD-1, first proliferation column (c5), DLD-1 BRCA2-/-, read-out: POLQ PD Prolif Lumin (converted)
[2] = DLD-1, second proliferation column (c6), DLD-1 BRCA2 wt control, read-out: POLQ PD Prolif Lumin (converted)
[3] = DLD-1, first proliferation column (c5), taken as DLD-1 BRCA2-/-, read-out: POLQ PD Prolif Lumin (converted)
[4] = DLD-1, second proliferation column (c6), taken as DLD-1 BRCA2 wt, read-out: POLQ PD Prolif Lumin (converted)
[5] = DLD-1, 288 h, DLD-1 BRCA2−/− cells, 12 days, read-out: POLQ PD Prolif Lumin BRCA2 −/− mean pIC50 (converted)
[6] = DLD-1, 168 h, DLD-1 BRCA2 wt cells, 7 days, read-out: POLQ PD Prolif Lumin DLD1 mean pIC50 (converted)
[7] = DLD-1, first proliferation column, DLD-1 BRCA2-/-, read-out: POLQ PD Prolif Lumin (converted)
[8] = DLD-1, second proliferation column, DLD-1 BRCA2 wt control, read-out: POLQ PD Prolif Lumin (converted)

CC1(Oc2ncnc3c2nc(-c2cccc(OC(C)(C)C(=O)O)c2Cl)n3Cc2cccc(Cl)c2)CC1 [Example T158, 2-(2-chloro-3-(9-(3-chlorobenzyl)-6-(1-methylcyclopropoxy)-9H-purin-8-yl)phenoxy)-2-methylpropanoic acid]
IC50 (DLD-1 BRCA2−/− cells; [1]): > 10000 nM
IC50 (DLD-1 cells; [2]): > 10000 nM

Cc1ccnc(Cn2c(-c3ccc(OCCC(C)(C)O)cc3Cl)nc3c(OC4(C)CC4)ncnc32)c1 [Example T382, 4-(3-chloro-4-(6-(1-methylcyclopropoxy)-9-((4-methylpyridin-2-yl)methyl)-9H-purin-8-yl)phenoxy)-2-methylbutan-2-ol]
IC50 (DLD-1 BRCA2−/− cells; [3]): 100 nM
IC50 (DLD-1 cells; [4]): > 10000 nM

CC1(Oc2ncnc3c2nc(-c2ccc(OCCN4CCNCC4)cc2Cl)n3Cc2ccnc(Cl)c2)CC1 [Example T378, 8-(2-chloro-4-(2-(piperazin-1-yl)ethoxy)phenyl)-9-((2-chloropyridin-4-yl)methyl)-6-(1-methylcyclopropoxy)-9H-purine]
IC50 (DLD-1 BRCA2−/− cells; [3]): 1580 nM
IC50 (DLD-1 cells; [4]): > 10000 nM

CC1(Oc2ncnc3c2nc(-c2ccc(OCCN4CC5(CCN5)C4)cc2Cl)n3Cc2ccccc2)CC1 [Example H18, 8-(4-(2-(1,6-diazaspiro[3.3]heptan-6-yl)ethoxy)-2-chlorophenyl)-9-benzyl-6-(1-methylcyclopropoxy)-9H-purine]
IC50 (DLD-1 BRCA2−/− cells; [5]): 316 nM
IC50 (DLD-1 cells; [6]): 3160 nM

CC1(Oc2cccc3c2nc(-c2ccc(OCCN4CCNCC4)cc2Cl)n3Cc2ccccn2)CCC1 [Example P1, 2-(2-chloro-4-(2-(piperazin-1-yl)ethoxy)phenyl)-4-(1-methylcyclobutoxy)-1-(pyridin-2-ylmethyl)-1H-benzo[d]imidazole]
IC50 (DLD-1 BRCA2−/− cells; [5]): 1260 nM
IC50 (DLD-1 cells; [6]): > 10000 nM

CC1(Oc2ncnc3c2nc(-c2ccc(OCCN4CCNC(=O)C4)cc2Cl)n3Cc2ccccc2)CC1 [Example D15, 4-(2-(4-(9-benzyl-6-(1-methylcyclopropoxy)-9H-purin-8-yl)-3-chlorophenoxy)ethyl)piperazin-2-one]
IC50 (DLD-1 BRCA2−/− cells; [5]): 79.4 nM
IC50 (DLD-1 cells; [6]): > 10000 nM

COc1cc(OCCN2CCN(C)CC2)ccc1-c1nc2c(OC3(C)CC3)ncnc2n1Cc1ccccc1 [Example H3, 9-benzyl-8-(2-methoxy-4-(2-(4-methylpiperazin-1-yl)ethoxy)phenyl)-6-(1-methylcyclopropoxy)-9H-purine]
IC50 (DLD-1 BRCA2−/− cells; [5]): 631 nM
IC50 (DLD-1 cells; [6]): 7940 nM

C[C@@H]1CN(CCOc2ccc(-c3nc4c(OC5(C)CC5)ncnc4n3Cc3ccccc3)c(Cl)c2)C[C@H](C)N1 [Example R9, (cis)-9-benzyl-8-(2-chloro-4-(2-(3,5-dimethylpiperazin-1-yl)ethoxy)phenyl)-6-(1-methylcyclopropoxy)-9H-purine]
IC50 (DLD-1 BRCA2−/− cells; [5]): 50.1 nM
IC50 (DLD-1 cells; [6]): 1580 nM

CC1(Oc2ccnc3c2nc(-c2ccc(OCCN4CCNCC4)cc2Cl)n3Cc2ccccn2)CCC1 [Example P3, 2-(2-chloro-4-(2-(piperazin-1-yl)ethoxy)phenyl)-7-(1-methylcyclobutoxy)-3-(pyridin-2-ylmethyl)-3H-imidazo[4,5-b]pyridine]
IC50 (DLD-1 BRCA2−/− cells; [5]): 2000 nM
IC50 (DLD-1 cells; [6]): > 10000 nM

Cc1ccnc(Cn2c(-c3ccc(CC(=O)N4CCCNCC4)cc3Cl)nc3c(OC4(C)CC4)ncnc32)c1 [Example T589, 2-(3-chloro-4-(6-(1-methylcyclopropoxy)-9-((4-methylpyridin-2-yl)methyl)-9H-purin-8-yl)phenyl)-1-(1,4-diazepan-1-yl)ethan-1-one]
IC50 (DLD-1 BRCA2−/− cells; [7]): 1580 nM
IC50 (DLD-1 cells; [8]): > 10000 nM

CC1(Oc2ncnc3c2nc(-c2ccc(OCCCN4CC[C@@H](O)C4)cc2Cl)n3Cc2cc(Cl)ccn2)CC1 [Example T502, (R)-1-(3-(3-chloro-4-(9-((4-chloropyridin-2-yl)methyl)-6-(1-methylcyclopropoxy)-9H-purin-8-yl)phenoxy)propyl)pyrrolidin-3-ol]
IC50 (DLD-1 BRCA2−/− cells; [1]): 126 nM
IC50 (DLD-1 cells; [2]): > 7940 nM

CN1CCN(CCOc2ccc(-c3nc4c(OC5(C)CC5)ncnc4n3Cc3cccc(F)c3F)c(Cl)c2)CC1 [Example E3, 8-(2-chloro-4-(2-(4-methylpiperazin-1-yl)ethoxy)phenyl)-9-(2,3-difluorobenzyl)-6-(1-methylcyclopropoxy)-9H-purine]
IC50 (DLD-1 BRCA2−/− cells; [5]): 50.1 nM
IC50 (DLD-1 cells; [6]): 3980 nM

CC(C)Oc1nccc2c1nc(-c1ccc(OCCN3CCNCC3)cc1Cl)n2Cc1ccccc1 [Example 9, 1-benzyl-2-(2-chloro-4-(2-(piperazin-1-yl)ethoxy)phenyl)-4-isopropoxy-1H-imidazo[4,5-c]pyridine]
IC50 (DLD-1 BRCA2−/− cells; [5]): 631 nM
IC50 (DLD-1 cells; [6]): 2510 nM

Cc1ccnc(Cn2c(-c3ccc(C(=O)N4CC[C@H](N(C)C)C4)cc3Cl)nc3c(OC4(C)CC4)ncnc32)c1 [Example T588, (S)-(3-chloro-4-(6-(1-methylcyclopropoxy)-9-((4-methylpyridin-2-yl)methyl)-9H-purin-8-yl)phenyl)(3-(dimethylamino)pyrrolidin-1-yl)methanone]
IC50 (DLD-1 BRCA2−/− cells; [7]): 1260 nM
IC50 (DLD-1 cells; [8]): > 10000 nM

COc1ccc(Cl)cc1Cn1c(-c2cccc(OCCCOC(C)(C)C(=O)O)c2Cl)nc2c(OC3(C)CC3)ncnc21 [Example U90, 2-(3-(2-chloro-3-(9-(5-chloro-2-methoxybenzyl)-6-(1-methylcyclopropoxy)-9H-purin-8-yl)phenoxy)propoxy)-2-methylpropanoic acid]
IC50 (DLD-1 BRCA2−/− cells; DLD-1, DLD-1 BRCA2 −/−, mean, read-out: POLQ PD Prolif Lumin BRCA2 −/− mean pIC50 (converted)): 5.01 nM
IC50 (DLD-1 cells; DLD-1, DLD1 BRCA2 wt, mean, read-out: POLQ PD Prolif Lumin DLD1 mean pIC50 (converted)): > 10000 nM

CN(C)CCCOc1ccc(-c2nc3c(OC4(C)CC4)ncnc3n2Cc2cc(Cl)ccn2)c(Cl)c1 [Example 17, 3-(3-Chloro-4-(9-((4-chloropyridin-2-yl)methyl)-6-(1-methylcyclopropoxy)-9H-purin-8-yl)phenoxy)-N,N-dimethylpropan-1-amine]
IC50 (DLD-1 BRCA2−/− cells; [5]): 79.4 nM
IC50 (DLD-1 cells; [6]): > 10000 nM

CC1(Oc2ncnc3c2nc(-c2ccc(OCCNCC(=O)O)cc2Cl)n3Cc2ccccc2)CC1 [Example D29, (2-(4-(9-benzyl-6-(1-methylcyclopropoxy)-9H-purin-8-yl)-3-chlorophenoxy)ethyl)glycine]
IC50 (DLD-1 BRCA2−/− cells; [5]): 5010 nM
IC50 (DLD-1 cells; [6]): > 10000 nM

Cc1cc(Cl)nc(Cn2c(-c3ccc(OCCN4CCNCC4)cc3Cl)nc3c(OC4(C)CC4)ncnc32)c1 [Example T524, 8-(2-chloro-4-(2-(piperazin-1-yl)ethoxy)phenyl)-9-((6-chloro-4-methylpyridin-2-yl)methyl)-6-(1-methylcyclopropoxy)-9H-purine]
IC50 (DLD-1 BRCA2−/− cells; [1]): 501 nM
IC50 (DLD-1 cells; [2]): > 10000 nM

C[C@H]1CNCCN1CCOc1ccc(-c2nc3c(OC4(C)CC4)ncnc3n2Cc2cc(Cl)ccn2)c(Cl)c1 [Example T523, (S)-8-(2-chloro-4-(2-(2-methylpiperazin-1-yl)ethoxy)phenyl)-9-((4-chloropyridin-2-yl)methyl)-6-(1-methylcyclopropoxy)-9H-purine]
IC50 (DLD-1 BRCA2−/− cells; [1]): 200 nM
IC50 (DLD-1 cells; [2]): > 10000 nM

CC(CCOc1ccc(-c2nc3c(OC4(C)CC4)ncnc3n2Cc2c(F)c(F)c(F)c(F)c2F)c(Cl)c1)C(=O)O (racemic) [Example T251, 4-(3-chloro-4-(6-(1-methylcyclopropoxy)-9-((perfluorophenyl)methyl)-9H-purin-8-yl)phenoxy)-2-methylbutanoic acid]
IC50 (DLD-1 BRCA2−/− cells; DLD-1, DLD-1 BRCA2-/- proliferation, column head only partly shown, read-out: POLQ PD Prolif Lumin (converted)): 2000 nM
IC50 (DLD-1 cells; DLD-1, DLD-1 BRCA2 wt control proliferation, column head only partly shown, read-out: POLQ PD Prolif Lumin (converted)): > 10000 nM

Cc1ccnc(Cn2c(-c3ccc(NC(=O)[C@@H](C)O)cc3Cl)nc3c(OC4(C)CC4)ncnc32)c1 [Example T121, (R)-N-(3-chloro-4-(6-(1-methylcyclopropoxy)-9-((4-methylpyridin-2-yl)methyl)-9H-purin-8-yl)phenyl)-2-hydroxypropanamide]
IC50 (DLD-1 BRCA2−/− cells; [1]): 316 nM
IC50 (DLD-1 cells; [2]): > 10000 nM

CC(=O)N1CCN(CCCOc2cc(C)c(-c3nc4c(OC5(C)CC5)ncnc4n3Cc3ccccc3)cn2)CC1 [Example G3, 1-(4-(3-((5-(9-benzyl-6-(1-methylcyclopropoxy)-9H-purin-8-yl)-4-methylpyridin-2-yl)oxy)propyl)piperazin-1-yl)ethan-1-one]
IC50 (DLD-1 BRCA2−/− cells; [5]): 1000 nM
IC50 (DLD-1 cells; [6]): 6310 nM

CC(c1cc(Cl)ccn1)n1c(-c2ccc(OCCN3CCNCC3)cc2Cl)nc2c(OC3(C)CC3)ncnc21 (single isomer, unassigned; isomer 2) [Example S5, 8-(2-chloro-4-(2-(piperazin-1-yl)ethoxy)phenyl)-9-(1-(4-chloropyridin-2-yl)ethyl)-6-(1-methylcyclopropoxy)-9H-purine (Isomer 2)]
POLQ PD Prolif Lumin BRCA2 −/− mean pIC50 (DLD-1 BRCA2−/− cells; DLD-1 BRCA2−/− cells, 12 days): 6.1
IC50 (DLD-1 cells; [6]): > 10000 nM

C[C@H]1C(=O)NCCN1CCOc1ccc(-c2nc3c(OC4(C)CC4)ncnc3n2Cc2ccccc2)c(Cl)c1 [Example H19, (S)-4-(2-(4-(9-benzyl-6-(1-methylcyclopropoxy)-9H-purin-8-yl)-3-chlorophenoxy)ethyl)-3-methylpiperazin-2-one]
IC50 (DLD-1 BRCA2−/− cells; [5]): 63.1 nM
IC50 (DLD-1 cells; [6]): > 10000 nM

CC(CCOc1ccc(-c2nc3c(OC4(C)CC4)ncnc3n2Cc2cccc(C(C)(F)F)c2)c(Cl)c1)C(=O)O (racemic) [Example T544, 4-(3-chloro-4-(9-(3-(1,1-difluoroethyl)benzyl)-6-(1-methylcyclopropoxy)-9H-purin-8-yl)phenoxy)-2-methylbutanoic acid]
IC50 (DLD-1 BRCA2−/− cells; [1]): 501 nM
IC50 (DLD-1 cells; [2]): > 10000 nM
